#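 1) Cells in 96-well plates. 2) Compound, 48 h, 5 concentrations. 3) Linear interpolation between surrounding doses. 4) Unreached endpoint = highest concentration. GI50 marks 50% less growth. TGI denotes the concentration required for complete inhibition of growth.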
# Experiments:
# Assay in all cases: inhibition of tumour cell growth, NCI panel, 48 h
# [1] = tested on: HCT-15 colon
# [2] = tested on: MCF7 breast
# [3] = tested on: CCRF-CEM leukemia
# [4] = tested on: SK-MEL-2 melanoma
# [5] = tested on: A549 NSCLC
# [6] = tested on: OVCAR-3 ovarian
# [7] = tested on: SK-MEL-28 melanoma
# [8] = tested on: MDA-MB-231 breast
# [9] = tested on: COLO 205 colon
# [10] = tested on: SW-620 colon
# [11] = tested on: NCI/ADR-RES ovarian
# [12] = tested on: U251 CNS
# [13] = tested on: UO-31 renal
# [14] = tested on: HCC-2998 colon
# [15] = tested on: SR leukemia
# [16] = tested on: RPMI-8226 leukemia
# [17] = tested on: T-47D breast
# [18] = tested on: HOP-62 NSCLC
# [19] = tested on: MOLT-4 leukemia
# [20] = tested on: ACHN renal
# [21] = tested on: HT29 colon
# [22] = tested on: OVCAR-4 ovarian
# [23] = tested on: SK-MEL-5 melanoma
# [24] = tested on: 786-0 renal
# [25] = tested on: OVCAR-5 ovarian
# [26] = tested on: PC-3 prostate
# [27] = tested on: OVCAR-8 ovarian
# [28] = tested on: IGROV1 ovarian
# [29] = tested on: HOP-92 NSCLC
# [30] = tested on: SF-295 CNS
# [31] = tested on: MALME-3M melanoma
# [32] = tested on: SF-539 CNS
# [33] = tested on: M14 melanoma
# [34] = tested on: UACC-257 melanoma
# [35] = tested on: KM12 colon
# [36] = tested on: LOX IMVI melanoma
# [37] = tested on: RXF 393 renal
# [38] = tested on: EKVX NSCLC
# [39] = tested on: SN12C renal
# [40] = tested on: HL-60(TB) leukemia
# [41] = tested on: SNB-19 CNS
# [42] = tested on: TK-10 renal
# [43] = tested on: CAKI-1 renal
# [44] = tested on: K-562 leukemia
# [45] = tested on: SNB-75 CNS
# [46] = tested on: A498 renal
# [47] = tested on: NCI-H226 lung
# [48] = tested on: UACC-62 melanoma
# [49] = tested on: HCT-116 colon
# [50] = tested on: NCI-H460 lung
# [51] = tested on: HS 578T breast
# [52] = tested on: NCI-H522 lung
# [53] = tested on: SK-OV-3 ovarian
# [54] = tested on: MDA-MB-435
# [55] = tested on: BT-549 breast
# [56] = tested on: SF-268 CNS
# [57] = tested on: DU-145 prostate
# [58] = tested on: NCI-H23 lung
smiles,measurement,setting,value
COc1cccc(C2CC(c3cc(OC)c(OC)c(OC)c3)=NN2)c1 (configuration not stated),GI50,[1],10.1 µM
same,TGI,[1],23.8 µM
same,GI50,[2],3.85 µM
same,TGI,[2],26.1 µM
same,GI50,[3],2.91 µM
same,TGI,[3],21.7 µM
same,GI50,[4],13.2 µM
same,TGI,[4],54.6 µM
same,GI50,[5],21.7 µM
same,TGI,[5],87.2 µM
same,GI50,[6],20.2 µM
same,TGI,[6],76.3 µM
same,GI50,[7],17.8 µM
same,TGI,[7],> 100 µM
same,GI50,[8],26.2 µM
same,TGI,[8],> 100 µM
same,GI50,[9],18.7 µM
same,TGI,[9],48.8 µM
same,GI50,[10],3.05 µM
same,TGI,[10],11.5 µM
same,GI50,[11],4.55 µM
same,TGI,[11],27.4 µM
same,GI50,[12],10 µM
same,TGI,[12],22.8 µM
same,GI50,[13],14.4 µM
same,TGI,[13],38.8 µM
same,GI50,[14],4.78 µM
same,TGI,[14],18.3 µM
same,GI50,[15],3.09 µM
same,TGI,[15],14.1 µM
same,GI50,[16],5.18 µM
same,TGI,[16],26 µM
same,GI50,[17],20.2 µM
same,TGI,[17],> 100 µM
same,GI50,[18],8.99 µM
same,TGI,[18],71.4 µM
same,GI50,[19],6.17 µM
same,TGI,[19],41.4 µM
same,GI50,[20],21.7 µM
same,TGI,[20],53 µM
same,GI50,[21],3.2 µM
same,TGI,[21],27.2 µM
same,GI50,[22],23.5 µM
same,TGI,[22],> 100 µM
same,GI50,[23],11.8 µM
same,TGI,[23],24 µM
same,GI50,[24],13.7 µM
same,TGI,[24],56.4 µM
same,GI50,[25],18.4 µM
same,TGI,[25],66.1 µM
same,GI50,[26],7.26 µM
same,TGI,[26],45.9 µM
same,GI50,[27],13.9 µM
same,TGI,[27],39 µM
same,GI50,[28],2.02 µM
same,TGI,[28],13.1 µM
same,GI50,[29],11.9 µM
same,TGI,[29],39.2 µM
same,GI50,[30],9.61 µM
same,TGI,[30],38.3 µM
same,GI50,[31],23.4 µM
same,TGI,[31],> 100 µM
same,GI50,[32],5.33 µM
same,TGI,[32],21.1 µM
same,GI50,[33],48.8 µM
same,TGI,[33],> 100 µM
same,GI50,[34],12.7 µM
same,TGI,[34],36.4 µM
same,GI50,[35],5.02 µM
same,TGI,[35],20.4 µM
same,GI50,[36],9.49 µM
same,TGI,[36],21.8 µM
same,GI50,[37],8.75 µM
same,TGI,[37],34 µM
same,GI50,[38],14.5 µM
same,TGI,[38],46.1 µM
same,GI50,[39],22.7 µM
same,TGI,[39],> 100 µM
same,GI50,[40],4.08 µM
same,TGI,[40],31.7 µM
same,GI50,[41],16.8 µM
same,TGI,[41],> 100 µM
same,GI50,[42],23.7 µM
same,TGI,[42],85.2 µM
same,GI50,[43],14.7 µM
same,TGI,[43],50.5 µM
same,GI50,[44],4.19 µM
same,TGI,[44],> 100 µM
same,GI50,[45],15.6 µM
same,TGI,[45],> 100 µM
same,GI50,[46],12.9 µM
same,TGI,[46],38.6 µM
same,GI50,[47],28.9 µM
same,TGI,[47],> 100 µM
same,GI50,[48],20.6 µM
same,TGI,[48],> 100 µM
same,GI50,[49],5.31 µM
same,TGI,[49],19 µM
same,GI50,[50],13.3 µM
same,TGI,[50],35.4 µM
same,GI50,[51],15.5 µM
same,TGI,[51],49.4 µM
same,GI50,[52],12.8 µM
same,TGI,[52],42.1 µM
same,GI50,[53],24.1 µM
same,TGI,[53],72.2 µM
same,GI50,[54],2.79 µM
same,TGI,[54],9.39 µM
same,GI50,[55],3.35 µM
same,TGI,[55],19.1 µM
same,GI50,[56],13.6 µM
same,TGI,[56],81.2 µM
Cc1nc2ccc(CN(C)c3ccc(C(=O)N[C@@H](CCC(=O)O)C(=O)O)s3)cc2c(=O)[nH]1,TGI,[1],> 100 µM
same,TGI,[2],> 100 µM
same,GI50,[3],0.027 µM
same,TGI,[3],> 100 µM
same,TGI,[4],> 100 µM
same,TGI,[5],> 100 µM
same,TGI,[6],> 100 µM
same,TGI,[7],> 100 µM
same,TGI,[8],> 100 µM
same,TGI,[9],> 100 µM
same,TGI,[10],> 100 µM
same,GI50,[11],< 0.0149 µM
same,TGI,[11],> 100 µM
same,TGI,[12],> 100 µM
same,GI50,[13],< 0.01 µM
same,TGI,[13],> 100 µM
same,GI50,[14],< 0.01 µM
same,TGI,[14],> 100 µM
same,TGI,[15],> 100 µM
same,TGI,[57],> 100 µM
same,TGI,[16],> 100 µM
same,TGI,[17],> 100 µM
same,TGI,[18],> 100 µM
same,TGI,[19],> 100 µM
same,TGI,[20],> 100 µM
same,TGI,[21],> 100 µM
same,TGI,[22],> 100 µM
same,GI50,[23],0.173 µM
same,TGI,[23],> 100 µM
same,TGI,[24],> 100 µM
same,TGI,[25],> 100 µM
same,TGI,[26],> 100 µM
same,TGI,[27],> 100 µM
same,TGI,[28],> 100 µM
same,TGI,[29],> 100 µM
same,TGI,[30],> 100 µM
same,TGI,[31],> 100 µM
same,TGI,[33],> 100 µM
same,TGI,[34],> 100 µM
same,TGI,[35],> 100 µM
same,TGI,[36],> 100 µM
same,GI50,[37],> 21.7 µM
same,TGI,[37],> 100 µM
same,TGI,[38],> 100 µM
same,GI50,[58],2.62 µM
same,TGI,[58],> 100 µM
same,TGI,[39],> 100 µM
same,TGI,[40],> 100 µM
same,TGI,[41],> 100 µM
same,TGI,[42],> 100 µM
same,TGI,[43],> 100 µM
same,TGI,[44],> 100 µM
same,TGI,[45],> 100 µM
same,GI50,[46],> 100 µM
same,TGI,[46],> 100 µM
same,TGI,[47],> 100 µM
same,TGI,[48],> 100 µM
same,TGI,[49],> 100 µM
same,TGI,[50],> 100 µM
same,TGI,[51],> 100 µM
same,TGI,[52],> 100 µM
same,TGI,[53],> 100 µM
same,TGI,[54],> 100 µM
same,TGI,[55],> 100 µM
same,TGI,[56],> 100 µM

# Reference: PubChem BioAssay (NCI)
